According to ChEMBL document CHEMBL1135853, “Structure-activity relationships of the peptide deformylase inhibitor BB-3497: modification of the metal binding group” (Bioorg Med Chem Lett, 2002):
≈ marks a conversion by molar mass, not a printed value.

How the values were obtained:
[1] = test system: Staphylococcus capitis; assay: Compound was evaluated for antibacterial activity against Staphylococcus capitis; format: functional
[2] = test system: Escherichia coli; assay: Compound was evaluated for antibacterial activity against Escherichia coli; format: functional
[3] = test system: Escherichia coli; assay: Compound was evaluated for antibacterial activity against Escherichia coli in the range of 75-100 uM; Exerted a moderate antibacterial effect; format: functional
[4] = target: Peptide deformylase (Escherichia coli) (UniProt P0A6K3); assay: Compound was evaluated for inhibition of peptide deformylase, PDF.Ni of Escherichia coli at concentration of 1 uM
Sequence of Peptide deformylase (Escherichia coli) (P0A6K3 whole entry, looked up): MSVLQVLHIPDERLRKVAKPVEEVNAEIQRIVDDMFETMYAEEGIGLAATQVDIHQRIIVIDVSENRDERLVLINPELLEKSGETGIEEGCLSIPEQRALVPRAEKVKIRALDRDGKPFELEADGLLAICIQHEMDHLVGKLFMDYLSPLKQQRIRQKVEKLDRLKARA

Row | SMILES | MIC [1] [µM] | MIC [2] [µM] | MIC [3] [µM] | inhibition [4] [%]
1 | CCCC[C@H](NCC(=O)O)C(=O)N[C@H](C(=O)N(C)C)C(C)(C)C | > 200 | > 200 |  | 
2 | CCCC[C@H](CS)C(=O)N[C@@H](CCCCN)C(=O)Nc1ccc([N+](=O)[O-])cc1 |  |  | 75 (≈ 30.8 µg/mL) | 
3 | CCCC[C@H](CC(=O)NN)C(=O)N[C@H](C(=O)N(C)C)C(C)(C)C | > 200 | > 200 |  | 
4 | CCCC[C@H](CNC=O)C(=O)N[C@H](C(=O)N(C)C)C(C)(C)C | > 200 | > 200 |  | 
5 | CCCC[C@H](CS)C(=O)N[C@H](C(=O)N(C)C)C(C)(C)C | > 200 | > 200 |  | 10
6 | CCCC[C@H](CC(=O)NO)C(=O)N[C@H](C(=O)N(C)C)C(C)(C)C | 100 (≈ 32.9 µg/mL) | 25 (≈ 8.24 µg/mL) |  | 
7 | CCCC[C@H](CN(O)C(C)=O)C(=O)N[C@H](C(=O)N(C)C)C(C)(C)C | > 200 | > 200 |  | 60

More lines, now with the values ahead:

Row | MIC [1] [µM] | MIC [2] [µM] | MIC [3] [µM] | inhibition [4] [%] | SMILES
8 | > 200 | > 200 |  |  | CCCC[C@H](CN(O)C(N)=O)C(=O)N[C@H](C(=O)N(C)C)C(C)(C)C
9 | > 200 | > 200 |  |  | CCCC[C@H](CC(=O)O)C(=O)N[C@H](C(=O)N(C)C)C(C)(C)C
10 | > 200 | > 200 |  |  | CCCCC(CC(=N)NO)C(=O)N[C@H](C(=O)N(C)C)C(C)(C)C (stereo partly specified)
11 | > 200 | > 200 |  | 40 | CCCC[C@H](NC(=O)NO)C(=O)N[C@H](C(=O)N(C)C)C(C)(C)C
12 | > 200 | > 200 |  |  | CCCCC(CP(=O)(O)O)C(=O)N[C@H](C(=O)N(C)C)C(C)(C)C (stereo partly specified)
13 | > 200 | > 200 |  |  | CCCCC(C[PH](=O)O)C(=O)N[C@H](C(=O)N(C)C)C(C)(C)C (stereo partly specified)
14 | > 200 | > 200 |  | 20 | CCCC[C@H](OC(=O)NO)C(=O)N[C@H](C(=O)N(C)C)C(C)(C)C
